Test systems include EKVX NSCLC; SK-MEL-5 melanoma; SNB-19 CNS; SK-OV-3 ovarian; MALME-3M melanoma; HCT-116 colon; RPMI-8226 leukemia; HOP-92 NSCLC; RXF 393 renal; HL-60(TB) leukemia.
Holding throughout (test): growth of human tumour cells (NCI), 48 h

This is an account of results in PubChem BioAssay (NCI).

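In this assay, cells in 96-well plates receive the compound at five concentrations for 48 hours. Endpoints are linearly interpolated between the surrounding concentrations. GI50: concentration for 50% inhibition of growth. The concentration for full growth arrest is given as TGI.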 Bounds are passed on as bounds.

With `COc1cc(Cn2c(-c3ccccc3)c(Cl)c3c2-c2oncc2CC3)cc(OC)c1`, the GI50 in the test with EKVX NSCLC was 4.97 µM; in the test on SK-MEL-5 melanoma, 5.5 µM; in the test on SNB-19 CNS, 22.8 µM; in the test with SK-OV-3 ovarian, 15.2 µM; with MALME-3M melanoma, 4.16 µM; in the test on HCT-116 colon it was 3.47 µM. For the same compound, the GI50 was 7.11 µM with RPMI-8226 leukemia, 50 µM in the test on HOP-92 NSCLC, 5.96 µM with RXF 393 renal and 3.32 µM in the test with HL-60(TB) leukemia. The TGI is more than 100 µM with EKVX NSCLC; 19.6 µM in the test with SK-MEL-5 melanoma; more than 100 µM in the test on SNB-19 CNS; more than 100 µM in the test on SK-OV-3 ovarian; 21.1 µM with MALME-3M melanoma; 14.9 µM with HCT-116 colon. In addition, the TGI is more than 100 µM in the test on RPMI-8226 leukemia, more than 100 µM in the test with HOP-92 NSCLC, 21.5 µM with RXF 393 renal and 38.6 µM in the test with HL-60(TB) leukemia.

For `COc1cc2c3c(n(C)c(=O)c2cc1OC)-c1cc2c(cc1/C3=C\CN)OCO2`, the GI50 is 11.6 µM in the test on EKVX NSCLC; 0.296 µM in the test with SK-MEL-5 melanoma; less than 0.0405 µM in the test on SNB-19 CNS; 0.412 µM with SK-OV-3 ovarian; 2.17 µM in the test with MALME-3M melanoma; 0.0713 µM in the test with HCT-116 colon. Further, the GI50 in the test on RPMI-8226 leukemia is 0.307 µM; with HOP-92 NSCLC, 2.09 µM; with RXF 393 renal, 3.17 µM; in the test with HL-60(TB) leukemia, 0.294 µM. Besides, the TGI in the test on EKVX NSCLC is more than 100 µM; in the test with SK-MEL-5 melanoma, 2.32 µM; in the test on MALME-3M melanoma, more than 40.4 µM; with HCT-116 colon, 0.437 µM; in the test with RPMI-8226 leukemia it was 4.9 µM; in the test on HOP-92 NSCLC it was more than 77.1 µM. Also, the TGI was more than 45.8 µM in the test with RXF 393 renal and more than 100 µM in the test on HL-60(TB) leukemia.

In the case of `CCC(C)COC(=O)c1ccc(N=Cc2ccc(C=Nc3ccc(C(=O)OCC(C)CC)cc3)cc2)cc1` (configuration not stated), the TGI with EKVX NSCLC, in the test with SK-MEL-5 melanoma, in the test on SNB-19 CNS, in the test with SK-OV-3 ovarian, in the test on MALME-3M melanoma and with HCT-116 colon was more than 100 µM in each case. Further, the TGI in the test on RPMI-8226 leukemia, in the test with HOP-92 NSCLC, with RXF 393 renal and with HL-60(TB) leukemia was more than 100 µM in each case.

As to `CCOC(=O)Nc1ccc(C)c(NC(=O)OCC)c1`, the TGI in the test with EKVX NSCLC, in the test with SK-MEL-5 melanoma, in the test with SNB-19 CNS, in the test with SK-OV-3 ovarian, in the test with MALME-3M melanoma and in the test with HCT-116 colon was more than 100 µM in each case. Moreover, the TGI in the test with RPMI-8226 leukemia, in the test on HOP-92 NSCLC, in the test with RXF 393 renal and in the test with HL-60(TB) leukemia was more than 100 µM each time.

With `O=C(Nc1nc(=S)c2c(ncn2CCOC(=O)c2ccccc2)[nH]1)c1ccccc1`, the TGI in the test with EKVX NSCLC, with SK-MEL-5 melanoma, in the test with SNB-19 CNS, in the test on SK-OV-3 ovarian, in the test on MALME-3M melanoma and with HCT-116 colon was more than 100 µM each time. Also, the TGI is more than 100 µM with RPMI-8226 leukemia, more than 100 µM in the test on HOP-92 NSCLC, 59.2 µM in the test on RXF 393 renal and more than 100 µM in the test with HL-60(TB) leukemia.

Regarding `Nc1nc(/C=C\c2ccc([N+](=O)[O-])s2)nc(N2CCCC2)n1`, the GI50 with EKVX NSCLC was 10.8 µM; with SK-MEL-5 melanoma it was 9.66 µM; in the test with SNB-19 CNS it was 3.01 µM; with SK-OV-3 ovarian, 9.25 µM; in the test on MALME-3M melanoma it was 12.3 µM; with HCT-116 colon, 1.1 µM. The GI50 with RPMI-8226 leukemia is 1.26 µM; with HOP-92 NSCLC, 6.73 µM; in the test on RXF 393 renal, 3.99 µM; in the test with HL-60(TB) leukemia it was 5.39 µM. Further, the TGI with EKVX NSCLC was determined as 30 µM; in the test with SK-MEL-5 melanoma, 22.5 µM; with SNB-19 CNS, 21.6 µM; in the test with SK-OV-3 ovarian, 30.4 µM; in the test on MALME-3M melanoma it was 28.5 µM; with HCT-116 colon, 4.68 µM. For the same compound, the TGI in the test with RPMI-8226 leukemia worked out at 4.39 µM; with HOP-92 NSCLC, 18.6 µM; with RXF 393 renal, 21.1 µM; in the test with HL-60(TB) leukemia it was 25.3 µM.

On to `COc1cc2c(c(OC)c1OC)-c1ccc(SC)c(=O)cc1C(NC=O)CC2` (configuration not stated), for which the TGI in the test on EKVX NSCLC was more than 85.2 µM; with SK-MEL-5 melanoma, less than 0.01 µM; in the test with SNB-19 CNS it was more than 100 µM; in the test on SK-OV-3 ovarian it was 63.9 µM; with MALME-3M melanoma, more than 83 µM; in the test with RPMI-8226 leukemia, 47.1 µM. The TGI with HOP-92 NSCLC was more than 100 µM; in the test with RXF 393 renal it was more than 67.9 µM; with HL-60(TB) leukemia, 0.0492 µM.

Consider `CC(=O)Oc1c2c(c(O)c3ccccc13)C(n1cnc3c(ncn3C3OC(CO)C4OC(C)(C)OC43)c1=N)CCC2` (configuration not stated), for which the TGI in the test with EKVX NSCLC stood at 36.9 µM; with SK-MEL-5 melanoma it was 24.5 µM; with SNB-19 CNS, 30.3 µM; with SK-OV-3 ovarian, 33.1 µM; in the test with MALME-3M melanoma, 23.4 µM; in the test with RPMI-8226 leukemia it was 18.7 µM. The TGI came out at 39.1 µM in the test on HOP-92 NSCLC, 32.3 µM in the test on RXF 393 renal and 22.3 µM in the test on HL-60(TB) leukemia.

With `Cc1ccc(/C=C/C(=O)c2sc(-c3nc(C)c(C(=O)/C=C/c4ccc(C)cc4)s3)nc2C)cc1`, the TGI with EKVX NSCLC, in the test with SK-MEL-5 melanoma, with SK-OV-3 ovarian, in the test on MALME-3M melanoma, in the test on RPMI-8226 leukemia and in the test with HOP-92 NSCLC was more than 100 µM throughout. Also, the TGI with RXF 393 renal and in the test with HL-60(TB) leukemia was more than 100 µM in each case.

Consider `COc1cc(-c2cc(-c3cc4c([nH]c5ccccc54)c(-c4cc(OC)c(OC)c(OC)c4)n3)cc(-c3ccccc3)n2)cc(OC)c1OC`, for which the GI50 with SK-MEL-5 melanoma is 2.46 µM; in the test on SNB-19 CNS it was 9.92 µM; with SK-OV-3 ovarian it was 5 µM; in the test with MALME-3M melanoma, 6.3 µM; with HCT-116 colon, 4.02 µM; in the test on RPMI-8226 leukemia, 2.88 µM. Besides, the GI50 is 1.45 µM in the test on HOP-92 NSCLC, 2.7 µM in the test with RXF 393 renal and 3.09 µM with HL-60(TB) leukemia. The TGI in the test on SK-MEL-5 melanoma was 7.61 µM; in the test on SNB-19 CNS, more than 100 µM; in the test with SK-OV-3 ovarian, 51.9 µM; in the test on MALME-3M melanoma it was 70.9 µM; with HCT-116 colon it was more than 100 µM; in the test with RPMI-8226 leukemia it was 18.5 µM. For the same compound, the TGI in the test with HOP-92 NSCLC was found to be 6.25 µM; in the test with RXF 393 renal, 12.2 µM; in the test with HL-60(TB) leukemia, 11.3 µM.
